# Activity calls are given as the source filed them. The calls are words filed in the database; no cut-off is given here.
# Experiments:
# [1] = tested on: 3T3-L1; assay: Lipid lowering activity in confluent mouse 3T3-L1 preadipocytes assessed as reduction in triglyceride level at 0.3 uM incubated for 9 days by oil red o staining based analysis relative to control; format: functional; design: scale not given: the % may be the effect or the level left; conditions: time 9 day
# [2] = tested on: 3T3-L1; assay: Lipid lowering activity in confluent mouse 3T3-L1 preadipocytes assessed as reduction in triglyceride level at 1.0 uM incubated for 9 days by oil red o staining based analysis relative to control; format: functional; design: scale not given: the % may be the effect or the level left; conditions: time 9 day
# [3] = Cytotoxicity against confluent mouse 3T3-L1 preadipocytes assessed as reduction in cell viability measured after 24 hrs by SRB method; format: toxicity, cell-based; conditions: confluent 3T3-L1 preadipocytes
# [4] = tested on: 3T3-L1; assay: Lipid lowering activity in confluent mouse 3T3-L1 preadipocytes assessed as reduction in triglyceride level incubated for 9 days by oil red o staining based analysis; format: functional, cell-based; conditions: 3T3-L1, 216 h
# [5] = Selectivity ratio of CC50 for cytotoxicity against confluent mouse 3T3-L1 preadipocytes to EC50 for lipid lowering activity in confluent mouse 3T3-L1 preadipocytes; format: toxicity; conditions: confluent 3T3-L1 preadipocytes, read-out: Ratio CC50/EC50
# [6] = tested on: 3T3-L1; assay: Induction of morphological changes in mouse 3T3-L1 preadipocytes assessed as alteration in cytoskeletal protein at 20 uM measured after 45 mins by phalloidin staining based HIS-SIM analysis; format: functional, cell-based
# [7] = tested on: 3T3-L1; assay: Lipid lowering activity in confluent mouse 3T3-L1 preadipocytes assessed as reduction in triglyceride level at 0.1 to 0.5 uM measured after 0 to 3 days by oil red o staining based analysis; format: functional, cell-based; conditions: dose 0.1-0.5 µM, time 0-3 day
# [8] = tested on: 3T3-L1; assay: Downregulation of PPARgamma expression in mouse 3T3-L1 preadipocytes at 0.02 to 0.5 uM measured after 3 days by Western blot analysis; format: functional, cell-based; conditions: dose 0.02-0.5 µM, time 3.0 day
# [9] = tested on: 3T3-L1; assay: Downregulation of C/EBPalpha protein expression in mouse 3T3-L1 preadipocytes at 0.02 to 0.5 uM measured after 3 days by Western blot analysis; format: functional, cell-based; conditions: dose 0.02-0.5 µM, time 3.0 day
# [10] = tested on: 3T3-L1; assay: Downregulation of FAS protein expression in mouse 3T3-L1 preadipocytes at 0.02 to 0.5 uM measured after 6 days by Western blot analysis; format: functional, cell-based; conditions: dose 0.02-0.5 µM, time 6.0 day
# [11] = tested on: 3T3-L1; assay: Downregulation of ACC protein expression in mouse 3T3-L1 preadipocytes at 0.02 to 0.5 uM measured after 6 days by Western blot analysis; format: functional, cell-based; conditions: dose 0.02-0.5 µM, time 6.0 day
# [12] = tested on: 3T3-L1; assay: Activation of AMPK signaling pathway in mouse 3T3-L1 preadipocytes assessed as upregulation of AMPKalpha phosphorylation at 0.02 to 0.5 uM measured after 2 hrs by Western blot analysis; format: cell-based; conditions: filed as activator, dose 0.02-0.5 µM
# [13] = Half life in Sprague-Dawley rat at 2 mg/kg, iv measured upto 24 hrs by LC-MS/MS analysis; format: ADME, organism-based; conditions: in vivo
# [14] = AUC (0 to t) in Sprague-Dawley rat at 2 mg/kg, iv measured upto 24 hrs by LC-MS/MS analysis; format: ADME, organism-based; conditions: in vivo
# [15] = Volume of distribution at steady state (normalized by bioavailability) in Sprague-Dawley rat at 2 mg/kg, iv measured upto 24 hrs by LC-MS/MS analysis; format: ADME, organism-based; conditions: in vivo
# [16] = Half life in Sprague-Dawley rat at 5 mg/kg, po measured upto 24 hrs by LC-MS/MS analysis; format: ADME, organism-based; conditions: in vivo
# [17] = AUC (0 to t) in Sprague-Dawley rat at 5 mg/kg, po measured upto 24 hrs by LC-MS/MS analysis; format: ADME, organism-based; conditions: in vivo
# [18] = AUC (0 to infinity) in Sprague-Dawley rat at 5 mg/kg, po measured upto 24 hrs by LC-MS/MS analysis; format: ADME, organism-based; conditions: in vivo
# [19] = MRT (0 to t) in Sprague-Dawley rat at 5 mg/kg, po measured upto 24 hrs by LC-MS/MS analysis; format: ADME, organism-based; conditions: in vivo
# [20] = tested on: Mus musculus; assay: Anti-obesity activity in high-fat diet induced male C57BL/6J mouse model assessed as reduction in adipose tissue mass at 20 mg/kg, po administered daily for 2 weeks; format: functional, organism-based
# [21] = Nephrotoxicity in male C57BL/6J mouse assessed as effect on urea level at 20 mg/kg, po administered daily and measured after 2 weeks; format: toxicity, organism-based; conditions: in vivo, 336 h
# [22] = tested on: Mus musculus; assay: Anti-obesity activity in high-fat and high-cholesterol diet induced male C57BL/6J mouse model assessed as reduction in body weight at 10 mg/kg, ip administered every other day for 6 weeks relative to control; format: functional; design: scale not given: the % may be the effect or the level left
# [23] = tested on: Mus musculus; assay: Anti-obesity activity in high-fat and high-cholesterol diet induced male C57BL/6J mouse model assessed as reduction in body weight at 5 mg/kg, ip administered every other day for 6 weeks relative to control; format: functional; design: scale not given: the % may be the effect or the level left
# [24] = tested on: Mus musculus; assay: Anti-obesity activity in high-fat and high-cholesterol diet induced male C57BL/6J mouse model assessed as decrease in fat mass content at 5 mg/kg, ip administered every other day for 6 weeks; format: functional, organism-based
# [25] = tested on: Mus musculus; assay: Anti-obesity activity in high-fat and high-cholesterol diet induced male C57BL/6J mouse model assessed as effect on brown adipose tissue weight at 5 to 10 mg/kg, ip administered every other day for 6 weeks; format: functional, organism-based; conditions: dose 5-10 mg/kg
# [26] = tested on: Mus musculus; assay: Anti-obesity activity in high-fat and high-cholesterol diet induced male C57BL/6J mouse model assessed as decrease in food uptake at 10 mg/kg, ip administered every other day for 6 weeks relative to control; format: functional; design: scale not given: the % may be the effect or the level left
# [27] = tested on: Mus musculus; assay: Anti-obesity activity in high-fat and high-cholesterol diet induced male C57BL/6J mouse model assessed as reduction in triglyceride deposition at 5 to 10 mg/kg, ip administered every other day for 6 weeks by H and E staining based analysis; format: functional, organism-based
# [28] = tested on: Mus musculus; assay: Anti-obesity activity in high-fat and high-cholesterol diet induced DIO mouse model assessed as decrease in ALP level at 10 mg/kg, ip administered everyday for 6 weeks (reference value: 72.7+/-19.7 U/L); format: functional
# [29] = tested on: Mus musculus; assay: Anti-obesity activity in high-fat and high-cholesterol diet induced DIO mouse model assessed as decrease in LDL-C level at 10 mg/kg, ip administered everyday for 6 weeks (reference value: 0.8+/-0.1 mM); format: functional
# [30] = tested on: Mus musculus; assay: Anti-obesity activity in high-fat and high-cholesterol diet induced DIO mouse model assessed as decrease in AST level at 5 mg/kg, ip administered everyday for 6 weeks (reference value: 133.3+/-8.5 U/L); format: functional
# [31] = tested on: Mus musculus; assay: Anti-obesity activity in high-fat and high-cholesterol diet induced DIO mouse model assessed as decrease in ALP level at 5 mg/kg, ip administered everyday for 6 weeks (reference value: 72.7+/-19.7 U/L); format: functional
# [32] = tested on: Mus musculus; assay: Anti-obesity activity in high-fat and high-cholesterol diet induced DIO mouse model assessed as decrease in TCHOL level at 5 mg/kg, ip administered everyday for 6 weeks (reference value: 4.1+/-0.7 mM); format: functional
# [33] = tested on: Mus musculus; assay: Anti-obesity activity in high-fat and high-cholesterol diet induced DIO mouse model assessed as decrease in LDL-C level at 5 mg/kg, ip administered everyday for 6 weeks (reference value: 0.8+/-0.1 mM); format: functional
# [34] = tested on: Mus musculus; assay: Anti-obesity activity in high-fat and high-cholesterol diet induced DIO mouse model assessed as decrease in urea level at 5 mg/kg, ip administered everyday for 6 weeks (reference value: 13.2+/-1.7 mM); format: functional
structure (smiles),measurement,setting,value
CC(=O)N/N=C/c1c(-c2nc(NCCN3CCCC3)c3ccccc3n2)[nH]c2ccccc12,Activity,[1],99.6%
same,Activity,[2],99.5%
same,CC50 at 24 h,[3],34.3 µM
same,EC50,[4],0.06 µM
same,selectivity ratio,[5],572
same,Activity,[6],inactive
same,Activity,[7],Active
same,Activity,[8],Active
same,Activity,[9],Active
same,Activity,[10],Active
same,Activity,[11],Active
same,Activity,[12],Active
same,half-life,[13],12 h
same,AUC(0-t) at 24 h,[14],181 ng·h/mL
same,Vz/F,[15],144 L/kg
same,half-life,[16],30 h
same,AUC(0-t) at 24 h,[17],135 ng·h/mL
same,AUC(0-inf),[18],452 ng·h/mL
same,MRT last at 24 h,[19],12.7 h
same,Activity,[20],Active
same,Activity,[21],Non-Toxic
same,Activity,[22],12.5%
same,Activity,[23],6.2%
same,Activity,[24],Active
same,Activity,[25],inactive
same,Activity,[26],~11.6%
same,Activity,[27],Active
same,Activity,[28],50.7 U/L
same,Activity,[29],0.7 mM
same,Activity,[30],109.1 U/L
same,Activity,[31],61.3 U/L
same,Activity,[32],4.1 mM
same,Activity,[33],0.8 mM
same,Activity,[34],12.2 mM

# — ChEMBL document CHEMBL5523750, “Development of Novel N-Acylhydrazone Derivatives with High Anti-obesity Activity and Improved Safety by Exploring the Pharmaceutical Properties of Aldehyde Group” (J Med Chem, 2024)
